Counter-ions that a name gives are not always drawn.
Target: T1, α2δ-subunit of a calcium channel (Sus scrofa, UniProt A0A287BIN3)
T1 construct: the α2δ-subunit derived from porcine brain tissue was used; from tissue; host or cells: porcine brain tissue
Assay: radioligand binding assay using [3H]-gabapentin
Details: α2δ-subunit derived from porcine brain tissue
Excerpt: The ability of compounds of the present invention to bind to the α2δ-subunit of a calcium channel can be determined using the following binding assay.
The radioligand binding assay using [^3H]-gabapentin and the α2δ-subunit derived from porcine brain tissue was used (See, Gee, Nicolas S et at “The novel anticonvulsant drug, gabapentin (Neurontin), binds to the α2δ subunit of a calcium channel”. J. Biol. Chem. (1996), 271(10), 5768-76). Compounds of the invention bind with nanomolar to micromolar affinity for the α2δ protein.

T1 sequence (A0A287BIN3 25-1109): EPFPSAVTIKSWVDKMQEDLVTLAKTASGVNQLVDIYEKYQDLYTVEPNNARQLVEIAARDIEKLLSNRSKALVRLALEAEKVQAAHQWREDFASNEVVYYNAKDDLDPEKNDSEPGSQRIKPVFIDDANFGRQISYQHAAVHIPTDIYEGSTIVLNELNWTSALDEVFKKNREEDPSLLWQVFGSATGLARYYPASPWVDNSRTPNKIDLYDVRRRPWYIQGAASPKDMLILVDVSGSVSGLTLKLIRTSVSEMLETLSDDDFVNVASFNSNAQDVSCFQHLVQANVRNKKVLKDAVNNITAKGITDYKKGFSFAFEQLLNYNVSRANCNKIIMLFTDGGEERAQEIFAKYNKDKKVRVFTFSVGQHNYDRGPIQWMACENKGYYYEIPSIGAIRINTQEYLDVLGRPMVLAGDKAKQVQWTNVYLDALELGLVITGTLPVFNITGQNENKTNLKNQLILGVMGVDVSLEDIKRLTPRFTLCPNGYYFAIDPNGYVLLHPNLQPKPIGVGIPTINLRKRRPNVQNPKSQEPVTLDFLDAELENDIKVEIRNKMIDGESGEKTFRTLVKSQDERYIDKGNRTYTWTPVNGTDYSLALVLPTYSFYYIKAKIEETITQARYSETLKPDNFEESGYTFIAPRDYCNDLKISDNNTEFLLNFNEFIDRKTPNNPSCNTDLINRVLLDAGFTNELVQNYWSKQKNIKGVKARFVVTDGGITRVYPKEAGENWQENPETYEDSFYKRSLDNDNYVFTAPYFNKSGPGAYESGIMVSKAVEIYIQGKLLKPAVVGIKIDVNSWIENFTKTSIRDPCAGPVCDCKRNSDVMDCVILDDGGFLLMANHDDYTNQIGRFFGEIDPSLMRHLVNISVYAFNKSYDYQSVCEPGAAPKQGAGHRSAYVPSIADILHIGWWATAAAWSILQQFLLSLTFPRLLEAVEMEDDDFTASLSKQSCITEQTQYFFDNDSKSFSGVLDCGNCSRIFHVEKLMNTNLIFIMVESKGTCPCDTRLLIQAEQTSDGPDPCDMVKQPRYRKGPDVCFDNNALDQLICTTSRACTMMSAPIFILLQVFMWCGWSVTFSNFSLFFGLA

**Q.** With `CCCC(C)(C)CC(CN)C(=O)O.Cl` (stereo not drawn) [2-Aminomethyl-4,4-dimethyl-heptanoic acid hydrochloride] as the compound, how does the “affinity to the α2δ protein” value read?
**A.** Its value is 83 nM.

**Q.** For `CCC[C@@H](C)C[C@H](CN)C(=O)O` [(2R,4R)-2-Aminomethyl-4-methyl-heptanoic acid], which “affinity to the α2δ protein” value is on record?
**A.** The value was 29 nM.

**Q.** With `CCC[C@H](C)C[C@H](N)CC(=O)O` [(3S,5S)-3-amino-5-methyl-octanoic acid] as the compound, how does the “affinity to the α2δ protein” value read?
**A.** Its value is 1000 nM.

**Q.** Which “affinity to the α2δ protein” value does the source give for `CC(C)CCCC(C)C[C@@H](N)CC(=O)O` (stereo partly drawn) [R-3-amino-5,9-dimethyl-decanoic acid] here?
**A.** The value was 527 nM.

Test system: not given
Assay: not given
Details: not given

**Q.** For `CCC[C@@H](C)C[C@H](N)CC(=O)O.Cl`, which melting point is on record?
**A.** Its melting point is 142.5 to 142.7 °C.

**Q.** For `CCCC[C@@H](C)C[C@H](N)CC(=O)O` (as salt: hydrochloride), which melting point is on record?
**A.** The melting point was 142.5 to 143.3 °C.

**Q.** Which melting point does the source give for `CCCC(C)(C)C[C@H](N)CC(=O)O` (as salt: hydrochloride) here?
**A.** Its melting point is 194.2 to 195.2 °C.

**Q.** Which melting point does the source give for `CCC[C@@H](C)C[C@H](CN)C(=O)O` (as salt: hydrochloride) [(2R,4R)-2-Aminomethyl-4-methyl-heptanoic acid] here?
**A.** Its melting point is 226.3 to 228 °C.

**Q.** With `CCCC(C)(C)CC(CN)C(=O)O.Cl` (stereo not drawn) [2-Aminomethyl-4,4-dimethyl-heptanoic acid hydrochloride] as the compound, how does the melting point read?
**A.** Its melting point is 229.5 to 231 °C.

Source: patent US7517909B2, “Amino acids with affinity for the α2δ-protein” (Pfizer Inc, priority 2002, dated 2009)
